Test results: US4198504A, “[3-(Pyridinium)-7-(naphthyiridinyl carbonylamino)acetamido]cephalosporanic acid derivatives” (Bristol-Myers Company, priority 1978, dated 1980)
Where two headings read alike, the source gives them in different places.

Tests used:
[1] = Antibiotic blood levels in mice following intramuscular administration (paper disc-agar diffusion, Escherichia coli NIHJ as assay organism); type: in vivo; conditions: mouse, im, I.M., 20 mg./kg.; for half-life: read-out: Blood level, Half-life; for Cmax: read-out: Blood level, Peak Concentration
Experimental: Antibiotic blood levels were determined in mice following intramuscular administration of the test compounds at 20 mg./kg. The blood samples were collected from the orbital sinuses into heparinized capillary tubes at 15, 30, 60 and 120 minutes after administration. The antibiotic concentration was determined by the paper disc-agar diffusion method using Escherichia coli NIHJ as the assay organism.

Escherichia coli Juhl = test: In vivo efficacy, experimental infection in mice, intramuscular treatment, Escherichia coli Juhl; set-up: species or system Escherichia coli (infected mice); conditions: im, 120 h, read-out: PD50 Escherichia coli Juhl
Experimental: (§1) The in vivo efficacy was evaluated by intramuscular treatment against three kinds of experimental infection in mice.
(§2) The in vivo tests were carried out using the following three pathogenic organisms:
(§3) Mice were challenged intraperitoneally with approximately a 100×LD50 dose of the pathogens in a 5% mucin suspension. The mice were treated with test compound by I.M. route immediately after the bacterial challenge.

S. aureus = test: In vitro MIC, serial two-fold agar dilution, primary evaluation Gp (S. aureus, 6 strains); type: cell-based; conditions: CBPC = 100%, geometric mean of MICs
Experimental: (§4) Minimun inhibitory concentrations (MIC) were determined by the serial two-fold agar dilution method using Steers' apparatus on Mueller-Hinton agar plate against 31 test organisms for the primary screening and also against 64 strains of Pseudomonas aeruginosa for the secondary evaluation. The results are shown in Table 1 in terms of relative activity with respect to the standard compound CBPC (carbenicillin) which was set at 100%. In each group the calculation was based on the geometric mean of the observed MICs.
*GP = S. aureus (6 strains);

[2] = tested on: Staphylococcus aureus Smith; test: In vivo efficacy, experimental infection in mice, intramuscular treatment, Staphylococcus aureus Smith; set-up: species or system Staphylococcus aureus (infected mice); conditions: im, 120 h, read-out: PD50 Staphylococcus aureus Smith
Experimental: as §1, §2
Staphylococcus aureus Smith
as §3

[3] = tested on: Ent. cloacae (3), Pr. vulgaris (1), Pr. morganii (1), S. marcescen (1); test: In vitro MIC, serial two-fold agar dilution, primary evaluation Gn-II (Ent. cloacae, Pr. vulgaris, Pr. morganii, S. marcescens); type: cell-based; conditions: CBPC = 100%, geometric mean of MICs
Experimental: as §4
GnII = Ent. cloacae (3), Pr. vulgaris (1), Pr. morganii (1), S. marcescen

[4] = tested on: Pseudomonas aeruginosa A9843; test: In vivo efficacy, experimental infection in mice, intramuscular treatment, Pseudomonas aeruginosa A9843; set-up: species or system Pseudomonas aeruginosa (infected mice); conditions: A9843, im, 120 h, read-out: PD50 Pseudomonas aeruginosa A9843
Experimental: as §1, §2
Pseudomonas aeruginosa A9843
as §3

Pseudomonas aeruginosa = test: In vitro MIC, serial two-fold agar dilution, secondary evaluation against Pseudomonas aeruginosa strains; type: cell-based; conditions: CBPC = 100%, geometric mean of MICs
Experimental: as §4

[5] = tested on: E. coli (9), Klebsiella sp. (2), Pr. mirabilis (1), Sal. enteritidis (1); test: In vitro MIC, serial two-fold agar dilution, primary evaluation Gn-I (E. coli, Klebsiella sp., Pr. mirabilis, Sal. enteritidis); type: cell-based; conditions: CBPC = 100%, geometric mean of MICs
Experimental: as §4
GnI = E. coli (9), Klebsiella sp. (2), Pr. mirabilis (1), Sal.

Ps. aeruginosa = test: In vitro MIC, serial two-fold agar dilution, primary evaluation Ps (6 strains); type: cell-based; conditions: CBPC = 100%, geometric mean of MICs
Experimental: as §4
Ps. = Ps. aeruginosa (6).

[6] = I.M., 100×LD50 challenge i.p., 5 days

SMILES | half-life [1] [min] | Cmax [1] [µg/mL] | ED50 (Escherichia coli Juhl; [6]) [mg/kg] | In vitro relative activity, primary evaluation Gp (6) (S. aureus; Mueller-Hinton agar) [%] | ED50 [2, 6] [mg/kg] | In vitro relative activity, primary evaluation Gn-II (6) ([3]; Mueller-Hinton agar) [%] | ED50 [4, 6] [mg/kg] | In vitro relative activity, secondary, Pseudomonas aeruginosa (61-64) (Pseudomonas aeruginosa; 61-64 strains) [%] | In vitro relative activity, primary evaluation Gn-I (13) ([5]; Mueller-Hinton agar) [%] | In vitro relative activity, primary evaluation Ps (6) (Ps. aeruginosa; Mueller-Hinton agar) [%] | ED50 (Escherichia coli Juhl; Lot 2, I.M.) [mg/kg] | In vitro relative activity, primary evaluation Gp (6) (S. aureus; Lot 2) [%] | ED50 ([2]; Lot 2, I.M.) [mg/kg] | In vitro relative activity, primary evaluation Gn-II (6) ([3]; Lot 2) [%] | ED50 ([4]; Lot 2, I.M.) [mg/kg] | In vitro relative activity, secondary, Pseudomonas aeruginosa (61-64) (Pseudomonas aeruginosa; Lot 2) [%] | In vitro relative activity, primary evaluation Gn-I (13) ([5]; Lot 2) [%] | In vitro relative activity, primary evaluation Ps (6) (Ps. aeruginosa; Lot 2) [%]
O=C([O-])C1=C(C[n+]2cccc(C(=O)O)c2)CSC2C(NC(=O)[C@H](NC(=O)c3cnc4cccnc4c3O)c3ccc(O)cc3)C(=O)N12 (stereo partly drawn) [BB-S579] | 75 | 12 | 1.8 | 28 | 2 | 22 | 6.4 | 2780 | 230 | 2880 |  |  |  |  |  |  |  | 
O=C(O)Cc1ccc[n+](CC2=C(C(=O)[O-])N3C(=O)C(NC(=O)[C@H](NC(=O)c4cnc5cccnc5c4O)c4ccc(O)cc4)C3SC2)c1 (stereo partly drawn) [BB-S580, 7-[D-α-(4-Hydroxy-1,5-naphthyridine-3-carboxamido)-α-(4-hydroxyphenyl)acetamido]-3-(3-carboxymethylpyridinium)methyl-3-cephem-4-carboxylate] | 33 | 16.5 | 1.2 | 27 | 2.6 | 33 | 6.4 | 1780 | 359 | 2490 |  |  |  |  |  |  |  | 
O=C([O-])C1=C(C[n+]2ccc(C(=O)O)cc2)CSC2C(NC(=O)[C@H](NC(=O)c3cnc4cccnc4c3O)c3ccc(O)cc3)C(=O)N12 (stereo partly drawn) [BB-S584, 7-[D-α-(4-Hydroxy-1,5-naphthyridine-3-carboxamido)-α-(4-hydroxyphenyl)acetamido]-3-(4-carboxypyridinium)methyl-3-cephem-4-carboxylate] | 81 | 12.5 | 4.2 | 22 | 7.6 | 14 | 36 | 1180 | 166 | 725 |  |  |  |  |  |  |  | 
O=C([O-])C1=C(C[n+]2ccccc2C(=O)O)CSC2C(NC(=O)[C@H](NC(=O)c3cnc4cccnc4c3O)c3ccc(O)cc3)C(=O)N12 (stereo partly drawn) [BB-S585, 7-[D-α-(4-Hydroxy-1,5-naphthyridine-3-carboxamido)-α-(4-hydroxyphenyl)acetamido]-3-(2-carboxypyridinium)methyl-3-cephem-4-carboxylate] | 60 | 5.8 | 7.4 | 20 | 10 | 4 | 86 | 466 | 53 | 297 |  |  |  |  |  |  |  | 
O=C([O-])C1=C(C[n+]2cccc(S(=O)(=O)O)c2)CSC2C(NC(=O)[C@H](NC(=O)c3cnc4cccnc4c3O)c3ccc(O)cc3)C(=O)N12 (stereo partly drawn) [BB-S587, 7-[D-α-(4-Hydroxy-1,5-naphthyridine-3-carboxamido)-α-(4-hydroxyphenyl)acetamido]-3-(3-sulfopyridinium)methyl-3-cephem-4-carboxylate] | 40 | 3 |  | 28 |  | 16 | 3.13 | 3380 | 166 | 2378 | 2.4 | 56 | 3.7 | 19 | 2.2 | 3570 | 87 | 3200
O=C([O-])C1=C(C[n+]2ccc(CCS(=O)(=O)O)cc2)CSC2C(NC(=O)[C@H](NC(=O)c3cnc4cccnc4c3O)c3ccc(O)cc3)C(=O)N12 (stereo partly drawn) [BB-S588, 7-[D-α-(4-Hydroxy-1,5-naphthyridine-3-carboxamido)-α-(4-hydroxyphenyl)acetamido]-3-(4-sulfoethylpyridinium)methyl-3-cephem-4-carboxylate] | 59 | 4.4 | 1.56 | 45 | 5 | 45 | 6.8 | 2030 | 350 | 1767 |  |  |  |  |  |  |  | 
O=C([O-])C1=C(C[n+]2cccc(S(=O)(=O)O)c2)CSC2C(NC(=O)[C@H](NC(=O)c3cnc4cccnc4c3O)c3ccccc3)C(=O)N12 (stereo partly drawn) [BB-S607, 7-[D-α-(4-Hydroxy-1,5-naphthyridine-3-carboxamido)-α-phenylacetamido]-3-(3-sulfopyridinium)methyl-3-cephem-4-carboxylate] | 60 | 10 |  | 35 | 4.5 | 13 | 23 | 695 | 24 | 883 |  |  |  |  |  |  |  | 
O=C([O-])C1=C(C[n+]2cccc(CCS(=O)(=O)O)c2)CSC2C(NC(=O)[C@H](NC(=O)c3cnc4cccnc4c3O)c3ccc(O)cc3)C(=O)N12 (stereo partly drawn) [BB-S620, 7-[D-α-(4-Hydroxy-1,5-naphthyridine-3-carboxamido)-α-(4-hydroxyphenyl)acetamido]-3-[3-(2-sulfoethyl)pyridinium]methyl 3-cephem-4-carboxylate] | 40 | 12.5 | 3.2 | 28 |  | 14 | 6.25 | 1800 | 60 | 800 |  |  |  |  |  |  |  | 
O=C(O)CSc1cc[n+](CC2=C(C(=O)[O-])N3C(=O)C(NC(=O)[C@H](NC(=O)c4cnc5cccnc5c4O)c4ccc(O)c(Cl)c4)C3SC2)cc1 (stereo partly drawn) [BB-S621, 7-[D-α-(4-Hydroxy-1,5-naphthyridine-3-carboxamido)-α-(3-chloro-4-hydroxyphenyl)acetamido]-3-[4-(carboxymethylthio)-pyridinium]methyl-3-cephem-4-carboxylate] | 54 | 10 | 2.4 | 20 |  | 18 | 4.6 | 1400 | 121 | 800 |  |  |  |  |  |  |  | 
